In patent US12011447B2, “Pharmaceutical composition for treating thyroid cancer comprising tyrosine kinase activity inhibitor as active ingredient” (Kyungpook National University Industry-Academic Cooperation …, priority 2017, dated 2024):

Tests used:
8505C cells = assay: In vitro 125I uptake assay; assay type: cell-based, human; conditions: anaplastic thyroid cancer cells
Description: 8505C cells (1.25×10^5) were seeded and incubated in a 24-well plate for 24 hours, and then treated with TKI-0266 and further incubated for 24 hours. Thereafter, the medium was removed, and the cells were washed with bHBSS (Hank's balanced salt solution containing 0.5% BSA). The cells were incubated with 500 μl of bHBSS, 3.7 kBq carrier-free ^125I (Perkin-Elmer), and 10 μmol/L sodium iodide (specific activity of 740 MBq/mmol) at 37° C. for 30 minutes. Thereafter, the cells were washed twice with cold bHBSS and lysed by adding 500 μL of 2% SDS solution thereto. Radioactivity was measured using a Cobra II gamma-counter (Canberra Packard, Canada). The ^125I uptake values were normalized by comparing the amount of total protein determined by BCA protein assay kit.

[1] = test system: anaplastic thyroid cancer xenograft (8505C-PNIS-PCMV); assay: Tumor growth inhibition in xenograft mice (tumor size, R-luc BLI); assay type: in vivo, Balb/c nude mice; conditions: single agent administration
Description: Female Balb/c nude mice, 5.5-week old with an average weight of 18.9±0.37 g (mean±standard deviation [SD]), were purchased (Hamamatsu, Shizuoka, Japan). The mice were acclimated under specific pathogen-free conditions for one week before starting the experiment, and were maintained at a temperature of 20 to 25° C. and a relative humidity of 40 to 70%. To establish anaplastic thyroid cancer xenograft mouse models, 8505C-PNIS-PCMV s (5×10^6) were mixed with Matrigel (Corning) at a ratio of 1:1 and injected subcutaneously into the right flank region of each mouse.
In addition, in order to evaluate the effect of TKI-0266 administration on the treatment of thyroid cancer, mice for use in the experiment were divided into four groups (n=5): the vehicle group; the ^131I-administered group (injected intraperitoneally with 1 mCi Na-^131I on day 2 of the experiment; the TKI-0266-administered group (injected intraperitoneally with 50 mg/kg of TKI-0266 for 5 days); and the group co-administered with ^131I and TKI-0266 (injected intraperitoneally with 50 mg/kg of TKI-0266 for 5 days, and injected intravenously with 1 mCi Na-^131I on day 2; n=5). To measure the degree of tumor growth, h-coelenterazine (15 μg/ml) was administered to the mice by intravenous injection, and then the R-luc activity was monitored by BLI every 5 days.

Row | SMILES | iodine uptake on treatment with NIS inhibitor (8505C cells) | tumor size on days 6 and 11 [1]
1 | [K+].[O-][Cl+3]([O-])([O-])[O-] [KCIO4, reference compound] | completely blocked | 
2 | [131I-].[Na+] [^131I, Na-^131I, reference compound] |  | continuous increase
